Laboratory results taken from patent US8729030B2 (Affymax, Inc., priority 2003, dated 2014).
Bridges are numbered along the chain shown (N, C = ends). Where no end group is shown, it is not given here. [ ]: non-standard residue; d: D form. 1Nal = N[C@@H](Cc1cccc2ccccc12)C(=O)O; Sar = CNCC(=O)O

Tests used:
[1] = biological target: chimeric receptor comprising the extra-cellular portion of the human EPO receptor to the intra-cellular portion of the human GCSF receptor; test: Reporter assay (Baf3/EpoR/GCSFR fos/lux luciferase); format: cell-based; conditions: Table 6; Baf3/EpoR/GCSFR fos/lux cells, 4 h
chimeric receptor comprising the extra-cellular portion of the human EPO receptor to the intra-cellular portion of the human GCSF receptor, sequence (P19235 25-250 limits assumed, change not shown): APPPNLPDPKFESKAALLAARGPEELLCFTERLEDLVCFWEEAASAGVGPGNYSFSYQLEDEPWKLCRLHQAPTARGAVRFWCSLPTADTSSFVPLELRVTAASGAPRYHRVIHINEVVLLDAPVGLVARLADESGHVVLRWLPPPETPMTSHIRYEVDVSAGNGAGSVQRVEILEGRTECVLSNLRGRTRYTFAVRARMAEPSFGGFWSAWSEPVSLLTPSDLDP
Source text: This assay is based upon a on a murine pre-B-cell line derived reporter cell, Baf3/EpoR/GCSFR fos/lux. This reporter cell line expresses a chimeric receptor comprising the extra-cellular portion of the human EPO receptor to the intra-cellular portion of the human GCSF receptor. This cell line is further transfected with a fos promoter-driven luciferase reporter gene construct. Activation of this chimeric receptor through addition of erythropoietic agent results in the expression of the luciferase reporter gene, and therefore the production of light upon addition of the luciferase substrate luciferin. Thus, the level of EPO-R activation in such cells may be quantitated via measurement of luciferase activity.
The Baf3/EpoR/GCSFR fos/lux cells are cultured in DMEM/F12 medium (Gibco) supplemented with 10% fetal bovine serum (FBS; Hyclone), 10% WEHI-3 supernatant (the supernatant from a culture of WEHI-3 cells, ATCC #TIB-68), and penicillin/streptomycin. […] Following a 5-minute incubation, light emission is measured on a Packard Topcount Luminometer (Packard Instrument Co., Downers Grove, Ill.). Light counts are plotted relative to test peptide concentration and analysed using Graph Pad software. The concentration of test peptide that results in a half-maximal emission of light is recorded as the EC50 [See Table 2: Reporter EC50]. […]

[2] = test system: human, bone marrow derived CD34+ cells; test: C/BFU-e assay (erythroid colony formation); format: cell-based; conditions: Table 6; colonies 90% of maximum relative to EPO control, 14 days
Source text: EPO-R signaling stimulates the differentiation of bone marrow stem cells into proliferating red blood cell presursors. This assay measures the ability of test peptides to stimulate the proliferation and differentiation of red blood cell precursors from primary human bone marrow pluripotent stem cells.
For this assay, serial dilutions of test peptide are made in IMDM medium (Gibco) supplemented with 10% FBS (Hyclone). […] The methylcellulose and peptide mixture is then vortexed thoroughly. Aliquots (100,000 cells/mL) of human, bone marrow derived CD34+ cells (Poietics/Cambrex) are thawed. The thawed cells are gently added to 0.1 mL of 1 mg/ml DNAse (Stem Cells) in a 50 mL tube. Next, 40-50 mL IMDM medium is added gently to cells: the medium is added drop by drop along the side of the 50 mL tube for the first 10 mL, and then the remaining volume of medium is slowly dispensed along the side of the tube. The cells are then spun at 900 rpm for 20 min, and the media removed carefully by gentle aspiration. The cells are resuspended in 1 ml of IMDM medium and the cell density per mL is counted on hemacytometer slide (10 μL aliquot of cell suspension on slide, and cell density is the average count×10,000 cells/ml). The cells are then diluted in IMDM medium to a cell density of 15,000 cells/mL. A 100 μL of diluted cells is then added to each 1.5 mL methyl cellulose plus peptide sample (final cell concentration in assay media is 1000 cells/mL), and the mixture is vortexed. Allow the bubbles in the mixture to disappear, and then aspirate 1 mL using blunt-end needle. Add 0.25 mL aspirated mixture from each sample into each of 4 wells of a 24-well plate (Falcon brand). Incubate the plated mixtures at 37° C. under 5% CO2 in a humid incubator for 14 days. Score for the presence of erythroid colonies using a phase microscope (5×-10× objective, final magnification of 100×).
EPO-R signaling stimulates the differentiation of bone marrow stem cells into proliferating red blood cell precursors. […]

peptide dimer of monomers (AcG)GLYACHMGPIT(1-nal)VCQPLR(MeG)K (SEQ ID NO: 2) (Ac-GGLYACHMGPIT[1Nal]VCQPLR[Sar]K; disulfide 6-15 (inferred); not fully specified (residue 1); printed as (AcG)GLYACHMGPIT(1-nal)VCQPLR(MeG)K; also: homodimer, dimer linkage not given here) [Peptide I]
EC50 [1]: 0.195 nM
EC90 [2]: 3 nM
